Read-outs that look alike come from different tables or passages of the source.
Experiments:
[1] = target: BCL6 BTB domain (biotin-thrombin-BCL6 amino acids 1-129) (Homo sapiens (Human), UniProt P41182); assay: Surface Plasmon Resonance (SPR) assay; type: binding; conditions: Biacore T200, single cycle kinetic analysis
Procedure: Surface Plasmon Resonance (SPR) Assay
SPR studies were performed using a Biacore™ T200 instrument (GE Health Sciences Inc.). […] The Biacore flow rate was set at 100 μl/min. […] Curve fitting and KD calculations were performed with the Biacore T200 Evaluation software (GE Health Sciences Inc).

Karpas422 cells = assay: Tumor cell growth inhibition assay; type: cell-based; conditions: Homo sapiens, KARPAS-422, 144 h, read-out: GI Karpas EC50
Procedure: Tumor Cell Growth Inhibition Assay:
Karpas422 cells were seeded into a 96-well plate at 2,000 cells/well in 150 μl medium (Alpha-MEM containing 10% FBS, […] Normocin, and […] Gentamycin, Invitrogen). A HP D300 digital dispenser was used to dose cells with DMSO or test compounds across a 10-point range of concentrations (high dose of 5 μM), and cultures were grown in a humidified 5% CO2 incubator at 37° C. After six days, plates were removed from incubator and equilibrated to room temperature. An equal volume of ATPlite assay reagent was added to each well, and samples were processed according to the manufacturer's instructions (Perkin Elmer). The luminescent signal was measured using an Envision plate reader equipped with a US-Luminescence detector.

[2] = tested on: BCL6 reporter construct in SuDHL4-3×BCL6-TK-Luc cells; assay: Cell-based luciferase assay (BCL6 reporter); conditions: 48 h, read-out: Luc IC50
Procedure: Cell-Based Luciferase Assay:
A BCL6 reporter construct containing three copies of the consensus BCL6 binding site, the TK promoter, and the firefly luciferase gene was stably expressed in SuDHL4 cells after lentivirus infection and selection with Blasticidin. SuDHL4-3×BCL6-TK-Luc cells were seeded into a Viewplate 384-well assay dish at 15,000 cells/well in […] (Alpha-MEM high glucose containing 10% FBS, 25 mM HEPES, […] GlutaMAX, 100 µg/mL Normocin, and […] Gentamycin, Invitrogen). A HP D300 digital dispenser was used to dose cells with DMSO or test compounds across a 10-point range of concentrations (high dose of 10 μM), and cultures were grown in a humidified 5% CO2 incubator at 37° C. After two days, plates were removed from the incubator and equilibrated to room temperature. An equal volume of neolite reporter gene assay reagent was added to each well, and samples were processed according to the manufacturer's instructions (Perkin Elmer). The luminescent signal was measured using an Envision plate reader equipped with a US-Luminescence detector.

[3] = Karpas422 cells, six days, ATPlite
[4] = SuDHL4-3×BCL6-TK-Luc cells, two days

SMILES | Kd [1] [nM] | EC50 (Karpas422 cells; [3]) [nM] | IC50 [2, 4] [nM] | EC50 (Karpas422 cells) [nM] | IC50 [2] [nM]
C[C@H]1COCCN1c1cc(NC(=O)Cn2cc(-c3cc(Cl)c(O)c(C(N)=O)c3)c3c(=O)n4c(nc32)CCC4)c(Cl)cn1 [I-2, (S)-3-chloro-5-(1-(2-((5-chloro-2-(3-methyl-morpholino)pyridin-4-yl)amino)-2-oxoethyl)-4-oxo-4,6,7,8-tetra-hydro-1H-dipyrrolo [1,2-a:2′,3′-d]pyrimidin-3-yl)-2-hydroxy-benzamide] | 4.48 | 304 | 95 | – | –
C[C@H]1COCCN1c1cc(NC(=O)Cn2cc(-c3cc(C(N)=O)c(O)c(F)c3F)c3c(=O)n4c(nc32)CCC4)c(Cl)cn1 [I-3, (S)-5-(1-(2-((5-chloro-2-(3-methylmorpho-lino)pyridin-4-yl)amino)-2-oxoethyl)-4-oxo-4,6,7,8-tetrahydro-1H-dipyrrolo[1,2-a:2′,3′-d]pyrimidin-3-yl)-3,4-difluoro-2-hydroxy-benzamide] | 25.2 | 502 | 708 | – | –
C[C@H]1CN(C)CCN1c1cc(NC(=O)Cn2cc(-c3cc(C(N)=O)c(O)c(F)c3F)c3c(=O)n4c(nc32)CCC4)c(Cl)cn1 [I-4, (S)-5-(1-(2-((5-chloro-2-(2,4-dimethylpiperazin-1-yl)pyridin-4-yl)amino)-2-oxoethyl)-4-oxo-4,6,7,8-tetrahydro-1H-dipyrrolo [1,2-a:2′,3′-d]pyrimidin-3-yl)-3,4-difluoro-2-hydroxybenzamide] | 23.2 | 312 | 318 | – | –
C[C@H]1COCCN1c1cc(NC(=O)Cn2cc(-c3cc(C(N)=O)c(O)c(F)c3F)c3c(=O)n4c(nc32)CCC4)c(Cl)c(F)n1 [I-5, (S)-5-(1-(2-((3-chloro-2-fluoro-6-(3-methyl-morpholino)pyridin-4-yl)amino)-2-oxoethyl)-4-oxo-4,6,7,8-tetrahydro-1H-dipyrrolo[1,2-a:2′,3′-d]pyrimidin-3-yl)-3,4-difluoro-2-hydroxy-benzamide] | 11.7 | – | – | 124 | 167
C[C@H]1CN(CC2CC2)CCN1c1cc(NC(=O)Cn2cc(-c3cc(C(N)=O)c(O)c(F)c3F)c3c(=O)n4c(nc32)CCC4)c(Cl)cn1 [I-6, (S)-5-(1-(2-((5-chloro-2-(4-(cyclopropylmethyl)-2-methylpiperazin-1-yl)pyridin-4-yl)amino)-2-oxoethyl)-4-oxo-4,6,7,8-tetrahydro-1H-dipyrrolo[1,2-a:2′,3′-d]pyrimidin-3-yl)-3,4-difluoro-2-hydroxy-benzamide] | 25.9 | 997 | 306 | – | –
C[C@H]1CN(C2COC2)CCN1c1cc(NC(=O)Cn2cc(-c3cc(C(N)=O)c(O)c(F)c3F)c3c(=O)n4c(nc32)CCC4)c(Cl)cn1 [I-7, (S)-5-(1-(2-((5-chloro-2-(2-methyl-4-(oxetan-3-yl)piperazin-1-yl)pyridin-4-yl)amino)-2-oxoethyl)-4-oxo-4,6,7,8-tetrahydro-1H-dipyrrolo[1,2-a:2′,3′-d]pyrimidin-3-yl)-3,4-difluoro-2-hydroxy-benzamide] | 17.6 | 299 | 213 | – | –
C[C@H]1CN(CC2(C)CC2)CCN1c1cc(NC(=O)Cn2cc(-c3cc(C(N)=O)c(O)c(F)c3F)c3c(=O)n4c(nc32)CCC4)c(Cl)cn1 [I-9, (S)-5-(1-(2-((5-chloro-2-(2-methyl-4-((1-methyl-cyclopropyl)methyl)piperazin-1-yl)pyridin-4-yl)amino)-2-oxoethyl)-4-oxo-4,6,7,8-tetrahydro-1H-dipyrrolo[1,2-a:2′,3′-d]pyrimidin-3-yl)-3,4-difluoro-2-hydroxy-benzamide] | 56.8 | 692 | 743 | – | –
C[C@H]1CN(C)CCN1c1cc(NC(=O)Cn2cc(-c3cc(C(N)=O)c(O)c(Cl)c3F)c3c(=O)n4c(nc32)CCC4)c(Cl)c(F)n1 [I-10, (S)-3-chloro-5-(1-(2-((3-chloro-6-(2,4-dimethylpiperazin-1-yl)-2-fluoropyridin-4-yl)amino)-2-oxoethyl)-4-oxo-4,6,7,8-tetrahydro-1H-dipyrrolo[1,2-a:2′,3′-d]pyrimidin-3-yl)-4-fluoro-2-hydroxy-benzamide] | 49.7 | – | – | 416 | 448
C[C@H]1COCCN1c1cc(NC(=O)Cn2cc(-c3cc(C(N)=O)c(O)c(Cl)c3F)c3c(=O)n4c(nc32)CCC4)c(Cl)c(F)n1 [I-11, (S)-3-chloro-5-(1-(2-((3-chloro-2-fluoro-6-(3-methylmorpholino)pyridin-4-yl)amino)-2-oxoethyl)-4-oxo-4,6,7,8-tetrahydro-1H-dipyrrolo [1,2-a:2′,3′-d]pyrimidin-3-yl)-4-fluoro-2-hydroxybenzamide] | 112 | 1900 | 988 | – | –
C[C@H]1CN(C)CCN1c1cc(NC(=O)Cn2cc(-c3cc(C(N)=O)c(O)c(Cl)c3F)c3c(=O)n4c(nc32)CCC4)c(Cl)cn1 [I-12, (S)-3-chloro-5-(1-(2-((5-chloro-2-(2,4-dimethyl-piperazin-1-yl)pyridin-4-yl)amino)-2-oxoethyl)-4-oxo-4,6,7,8-tetrahydro-1H-dipyrrolo[1,2-a:2′,3′-d]pyrimidin-3-yl)-4-fluoro-2-hydroxy-benzamide] | 111 | – | – | 1470 | 994
C[C@H]1COCCN1c1cc(NC(=O)Cn2cc(-c3cc(C(N)=O)c(O)c(Cl)c3F)c3c(=O)n4c(nc32)CCC4)c(Cl)cn1 [I-13, (S)-3-chloro-5-(1-(2-((5-chloro-2-(3-methyl-morpholino)pyridin-4-yl)amino)-2-oxoethyl)-4-oxo-4,6,7,8-tetra-hydro-1H-dipyrrolo [1,2-a:2′,3′-d]pyrimidin-3-yl)-4-fluoro-2-hydroxybenzamide] | 111 | 1870 | 1320 | – | –
C[C@H]1CN(C2COC2)CCN1c1cc(NC(=O)Cn2cc(-c3cc(C(N)=O)c(O)c(Cl)c3F)c3c(=O)n4c(nc32)CCC4)c(Cl)cn1 [I-14, (S)-3-chloro-5-(1-(2-((5-chloro-2-(2-methyl-4-(oxetan-3-yl)piperazin-1-yl)pyridin-4-yl)amino)-2-oxoethyl)-4-oxo-4,6,7,8-tetrahydro-1H-dipyrrolo[1,2-a:2′,3′-d]pyrimidin-3-yl)-4-fluoro-2-hydroxy-benzamide] | 58.1 | 698 | 774 | – | –
COc1c(O)c(C(N)=O)cc(-c2cn(CC(=O)Nc3cc(N4CCN(C)C[C@@H]4C)nc(F)c3Cl)c3nc4n(c(=O)c23)CCC4)c1F [I-15, (S)-5-(1-(2-((3-chloro-6-(2,4-dimethylpiperazin-1-yl)-2-fluoropyridin-4-yl)amino)-2-oxoethyl)-4-oxo-4,6,7,8-tetrahydro-1H-dipyrrolo[1,2-a:2′,3′-d]pyrimidin-3-yl)-4-fluoro-2-hydroxy-3-methoxybenzamide] | 34.1 | – | – | – | 374
COc1c(O)c(C(N)=O)cc(-c2cn(CC(=O)Nc3cc(N4CCOC[C@@H]4C)nc(F)c3Cl)c3nc4n(c(=O)c23)CCC4)c1F [I-16, (S)-5-(1-(2-((3-chloro-2-fluoro-6-(3-methyl-morpholino)pyridin-4-yl)amino)-2oxoethyl)-4-oxo-4,6,7,8-tetra-hydro-1H-dipyrrolo [1,2-a:2′,3′-d]pyri-midin-3-yl)-4-fluoro-2-hydroxy-3-methoxy-benzamide] | – | – | – | – | 510
COc1c(O)c(C(N)=O)cc(-c2cn(CC(=O)Nc3cc(N4CCN(C)C[C@@H]4C)ncc3Cl)c3nc4n(c(=O)c23)CCC4)c1F [I-17, (S)-5-(1-(2-((5-chloro-2-(2,4-dimethyl-piperazin-1-yl)pyridin-4-yl)amino)-2-oxoethyl)-4-oxo-4,6,7,8-tetrahydro-1H-dipyrrolo[1,2-a:2′,3′-d]pyrimidin-3-yl)-4-fluoro-2-hydroxy-3-methoxybenzamide] | 49.6 | 985 | 850 | – | –
COc1c(O)c(C(N)=O)cc(-c2cn(CC(=O)Nc3cc(N4CCOC[C@@H]4C)ncc3Cl)c3nc4n(c(=O)c23)CCC4)c1F [I-18, (S)-5-(1-(2-((5-chloro-2-(3-methylmorpholino)pyridin-4-yl)amino)-2-oxoethyl)-4-oxo-4,6,7,8-tetrahydro-1H-dipyrrolo[1,2-a:2′,3′-d]pyrimidin-3-yl)-4-fluoro-2-hydroxy-3-methoxybenzamide] | 34.3 | – | – | 688 | 818
